Columns and labels:
[1] = test system: CVB3 (strain Nancy); experiment: CPE inhibition assay for anti-CVBs, CVB3 in Vero cells; type: cell-based, coxsackievirus B3; conditions: Enterovirus B, CVB3, 100 TCID50, Vero cells
Procedure: (§1) The anti-virus activity of formononetin on CVBs was also assayed by CPE method. Briefly, cells (3 × 10^4 cells/well) were plated into 96-well culture plates for incubation of 24 h. The medium was removed and cells were infected with 100 TCID50 of CVB2, CVB6 or CVB3. Then, various concentrations of formononetin were supplemented for incubation of another 48 h. The IC50 was determined by Reed and Muench method. The SI was calculated as the ratio of TC50/IC50 [19].

[2] = test system: CVB2 (strain Ohio-1); experiment: CPE inhibition assay for anti-CVBs, CVB2 in Vero cells; type: cell-based, coxsackievirus B2; conditions: Enterovirus B, CVB2, 100 TCID50, Vero cells
Procedure: as §1

[3] = test system: CVB6 (strain Schmitt); experiment: CPE inhibition assay for anti-CVBs, CVB6 in Vero cells; type: cell-based, coxsackievirus B6; conditions: Enterovirus B, CVB6, 100 TCID50, Vero cells
Procedure: as §1

[4] = test system: EV71 strain H; experiment: CPE inhibition assay, EV71 strain H in Vero cells; type: cell-based, enterovirus 71; conditions: Enterovirus A
Procedure: The anti-EV71 activity of formononetin was assayed by CPE inhibition method. Briefly, cells (3 × 10^4 cells/well) were plated into 96-well culture plates for incubation of 24 h. The medium was then removed and cells were infected with EV71 of 80 pfu/well. Then, various concentrations of formononetin were supplemented for incubation of another 48 h. The IC50 defined as the minimal concentration of inhibitor required to inhibit 50% of CPE was determined by Reed & Muench method. The selectivity index (SI) was calculated as the ratio of TC50/IC50 [19].

[5] = test system: Vero cells; experiment: Cytotoxicity assay (MTS) in Vero cells; type: cell-based; conditions: 3 days
Procedure: Cytotoxic effect of formononetin on Vero or SK-N-SH cells was assayed by MTS (promega) assay. Briefly, cells (3 × 10^4 cells/well) were seeded into 96-well culture plates and were incubated overnight. Then, the medium was removed and different concentrations of formononetin were applied in triplicate. After 3 days’ incubation, the cytotoxicity of formononetin was determined by MTS assay. The TC50 was defined as the concentration that inhibits 50% cellular growth in comparison with the controls and the TC0 was defined as the maximal non-toxicity dose.

[6] = test system: EV71; experiment: Antiviral activity against EV71, comparison of pirodavir and pleconaril (data not shown); type: cell-based, enterovirus 71
[7] = test system: EV71 VP1 protein; experiment: Immunofluorescence assay of EV71 VP1 protein in SK-N-SH cells; type: cell-based, enterovirus 71; conditions: EV71 SHZH98 160 pfu/well, 24 h treatment
From the text: Figure 2 The antiviral effect of formononetin and pirodavir against EV71 in SK-N-SH cells. (A) Formononetin and pirodavir reduced the expression of EV71 VP1 protein in SK-N-SH cells by western blot assay. (B) Formononetin and pirodavir reduced the expression of EV71 VP1 protein in SK-N-SH cells by immunofluorescence assay. Cells were examined using a fluorescence microscopy (×100). (C) Formononetin and pirodavir reduced the expression of EV71 VP1 RNA by one-step qRT-PCR assay. *P < 0.001 ^# P < 0.05.
SK-N-SH cells grown on glass coverslips (Thermo) were infected with EV71 (SHZH98) of 160 pfu/well for 2 h. Then, various concentrations of formononetin were supplemented for incubation of another 24 h. After incubation, the culture medium was removed and the cells were washed and fixed. The cells were permeabilized in 0.5% Triton X-100 at room temperature for 15 min and blocked in PBS containing 1% BSA for 60 min at room temperature. Cells were then incubated with an anti-EV71 VP1 antibody (Abnova) at a dilution of 1: 500 for 2 h at room temperature. After washing three times with PBS, the samples were reacted with Alexa Fluor 488-labeled goat anti-mouse secondary antibody (Beyotime Institute of Biotechnology, China) for 1 h at room temperature. After washing with PBS, images were taken using a fluorescence microscope (Olympus, IX71).

COc1ccc(-c2coc3cc(O)ccc3c2=O)cc1 [Formononetin]
IC50 [1]: 2.57 ± 0.87 µM
IC50 [2]: 9.56 ± 2.23 µM
IC50 [3]: 5.33 ± 1.48 µM
IC50 [4]: 11.1 ± 9.23 µM
TC0 (maximal non-toxicity dose) [5]: 41.42 ± 0 µmol/L
TC50 (50% toxicity concentration) [5]: 149.38 ± 12.15 µM
TC0 (maximal non-toxicity dose) ([5]; listed as formononetin): 41.42 µmol/L
TC50 (50% toxicity concentration) ([5]; listed as formononetin): 149.38 µM

CCOC(=O)c1ccc(OCCC2CCN(c3ccc(C)nn3)CC2)cc1 [Pirodavir, reference compound]
Antiviral activity against EV71 compared with pleconaril [6]: better than pleconaril
Expression of EV71 VP1 protein (immunofluorescence assay) [7]: reduced

Reference: article PMC4351682, “Formononetin inhibits enterovirus 71 replication by regulating COX- 2/PGE2 expression” (Virology Journal, 2015)
